Reference: patent publication US12613249B2 (THE ROYAL INSTITUTION FOR THE ADVANCEMENT OF LEARNING / …, priority 2019, dated 2026)
Square brackets hold non-standard residues; d marks the D form. Peptide text beside a SMILES is read from it.

Tests used:
[1] = Ex-vivo stability in mouse plasma, MALDI-TOF MS; format: in vitro ADME, C57BL/6 mice; conditions: 37° C., 24 h
Protocol: The stability of D-AIP in mouse plasma, blood and liver S-9 fraction was investigated to ascertain the metabolic resistance towards proteases and enzymatic activities in these matrices. Whole mouse blood obtained from healthy C57BL/6 male and female mice (6 mice in total) were collected in lithium heparin containing tubes, pooled and stored at 4° C. prior to its use. A fraction of the pooled blood was immediately centrifuged at 1500×g for 10 min at 4° C. to obtain the plasma. The whole blood and plasma samples were spiked with PBS (as control) or AIP (L-AIP, D-AIP or sD-AIP respectively) to make a final concentration of 1 ug/mL and incubated at 37° C. Initial samples were withdrawn to represent t=0 prior to incubation and others were withdrawn 1, 3 and 24 h respectively. Fresh mouse liver also obtained from C57BL/6 male and female mice were pooled, homogenized in 0.15 M Potassium chloride (KCl) and centrifuged at 9000×g. […] The samples were then vigorously mixed for 30 s to facilitate extraction and centrifuged for 10 minutes at 13000 rpm, the supernatant was subjected to sample clean up by C18 ZipTip (EMD Millipore Corporation), the eluates were spotted with CHCA matrix on the ground steel MALDI-TOF target and analyzed with MALDI-TOF MS. […]

[2] = Ex-vivo stability in mouse whole blood, MALDI-TOF MS; format: in vitro ADME
Protocol: (§1) The stability of D-AIP in mouse plasma, blood and liver S-9 fraction was investigated to ascertain the metabolic resistance towards proteases and enzymatic activities in these matrices. Whole mouse blood obtained from healthy C57BL/6 male and female mice (6 mice in total) were collected in lithium heparin containing tubes, pooled and stored at 4° C. prior to its use. A fraction of the pooled blood was immediately centrifuged at 1500×g for 10 min at 4° C. to obtain the plasma. The whole blood and plasma samples were spiked with PBS (as control) or AIP (L-AIP, D-AIP or sD-AIP respectively) to make a final concentration of 1 ug/mL and incubated at 37° C. Initial samples were withdrawn to represent t=0 prior to incubation and others were withdrawn 1, 3 and 24 h respectively. Fresh mouse liver also obtained from C57BL/6 male and female mice were pooled, homogenized in 0.15 M Potassium chloride (KCl) and centrifuged at 9000×g. The supernatant represents liver homogenate (S-9) fraction which was mixed with other buffers to formulate the liver S-9 mix as previously described (Kolrep et al., 2017, Toxicol In Vitro, 42:161-170). Liver S-9 mix were spiked with AIP to make a final concentration of 1 μg/mL (L-AIP, D-AIP or sD-AIP respectively) and incubated at 37° C. Just after the addition of NADPH, 100 μL aliquot which represents t=0 samples were withdrawn and others were sampled accordingly at predetermined time points. 400 μL of ice cold MeOH was added to the spiked plasma, blood or liver S-9 fraction respectively, to precipitate the microsomal protein. The samples were then vigorously mixed for 30 s to facilitate extraction and centrifuged for 10 minutes at 13000 rpm, the supernatant was subjected to sample clean up by C18 ZipTip (EMD Millipore Corporation), the eluates were spotted with CHCA matrix on the ground steel MALDI-TOF target and analyzed with MALDI-TOF MS. Applying the t=0 peak area as 100% the intensities of the other time points were compared relatively for interpretation. […]

[3] = Ex-vivo stability in mouse liver S9-fraction, MALDI-TOF MS; format: in vitro ADME, C57BL/6 mice
Protocol: as §1

[4] = Tolerability of single oral doses; format: in vivo, C57BL/6 mice; conditions: single oral doses of 10, 30 and 100 mg/kg, female and male mice
From the text: Animal care and all animal experiments were undertaken with federal guidelines and approval of the Institutional Animal Ethical Committee of McGill University, Montreal, Canada (Protocol Application Number: 2017-7880) and adequate measures were taken to minimize pain or discomfort. C57BL/6 mice were purchased from Charles River laboratories, a total of 144 healthy (7-9 weeks old) male and female (20-25 g) were grouped accordingly and housed in polycarbonate cages, (three mice per cage per sex) in air-conditioned rooms with a 12 h light/dark cycle. Animals were allowed unlimited access to drinking water and standard mouse chow during the study. Animals (n=3) were orally dosed with D-AIP using an oral gavage at 10, 30 and 100 mg/kg respectively prepared in phosphate buffered saline (PBS). […] Pharmacokinetic parameters area under the curve (AUC), maximum concentration reached (Cmax), time at which maximum concentration is reached (Tmax). elimination rate constant (A), elimination half-life (t1/2), apparent total clearance from plasma after oral administration (CI/F), apparent volume of distribution (Vd) and mean residence time (MRT) were calculated using PKSolver, a freely available menu-driven add-in program for Microsoft Excel written in Visual Basic for Applications (VBA), for solving problems in pharmacokinetics.

C[C@H](O)[C@@H](NC(=O)CNC(=O)[C@H](N)CCCNC(=N)N)C(=O)N[C@H](Cc1ccccc1)C(=O)N[C@H](CCC(=O)O)C(=O)NCC(=O)N[C@H](CCCCN)C(=O)N[C@H](Cc1ccccc1)C(=O)O [D-AIP] (H-[dR]G[dT][dF][dE]G[dK][dF]-OH; N-terminus and C-terminus assumed)
stability, MALDI-TOF MS signal (941 m/z) [1]: relatively stable over 24 h
stability, MALDI-TOF MS signal (941 m/z) ([2]; 37° C., 24 h): relatively stable up to 24 h
metabolised at 24 h, 1 ug/mL ([2]; both sexes, C57BL/6, 24 h incubation, read-out: decrease of signal): ~50%
stability, MALDI-TOF MS signal (941 m/z) ([3]; mouse liver S9-fraction, 37° C., 24 h): relatively stable over 24 h
signal intensity compared to the unincubated sample ([3]; mouse liver S-9 fraction, after 24 h): three-fold decreased intensity
tolerability [4]: well-tolerated with no detectable vital signs of abnormalities
